Test [1] has as its target Cholinesterase (Equus caballus, UniProt P81908).
Description: Inhibition of equine serum BuChE by Ellman's method
The target in test [2] is Acetylcholinesterase (Electrophorus electricus, UniProt O42275).
Description: Inhibition of electric eel AChE by Ellman's method
Test [3] concerns the target Cholinesterase (Equus caballus) (UniProt P81908). As to the kind of experiment: Mixed reversible inhibition of equine serum BuChE assessed as decrease in Vmax and increase in Km at 3.13 to 12.5 uM by Lineweaver-burk plot analysis. To be noted: dose 3.13-12.5 µM.
For test [4] the target is unchanged. Put plainly: Potency index,ratio of isatin IC50 to test compound IC50 for inhibition of equine serum BuChE.
The target is the same in test [5]. Put plainly: Mixed reversible inhibition of equine serum BuChE assessed as decrease in Vmax and increase in Km at 1.56 to 6.25 uM by Lineweaver-burk plot analysis. The settings on record: dose 1.56-6.25 µM.

For 16 compounds, IC50, inhibition and Ratio IC50 results are on record in ChEMBL document CHEMBL5150026, “Selective butyrylcholinesterase inhibition by isatin dimers and 3-indolyl-3-hydroxy-2-oxindole dimers” (Bioorg Med Chem Lett, 2022).

A word on the IC50: it is the point on the concentration scale where inhibition reaches its midpoint. Read a high IC50 as weaker potency in that assay.

The source made the active and inactive calls. The calls are words filed in the database; no cut-off is given here. A value given as a limit tells only on which side of the number the result lay.

Sequence of Cholinesterase (P81908 whole entry): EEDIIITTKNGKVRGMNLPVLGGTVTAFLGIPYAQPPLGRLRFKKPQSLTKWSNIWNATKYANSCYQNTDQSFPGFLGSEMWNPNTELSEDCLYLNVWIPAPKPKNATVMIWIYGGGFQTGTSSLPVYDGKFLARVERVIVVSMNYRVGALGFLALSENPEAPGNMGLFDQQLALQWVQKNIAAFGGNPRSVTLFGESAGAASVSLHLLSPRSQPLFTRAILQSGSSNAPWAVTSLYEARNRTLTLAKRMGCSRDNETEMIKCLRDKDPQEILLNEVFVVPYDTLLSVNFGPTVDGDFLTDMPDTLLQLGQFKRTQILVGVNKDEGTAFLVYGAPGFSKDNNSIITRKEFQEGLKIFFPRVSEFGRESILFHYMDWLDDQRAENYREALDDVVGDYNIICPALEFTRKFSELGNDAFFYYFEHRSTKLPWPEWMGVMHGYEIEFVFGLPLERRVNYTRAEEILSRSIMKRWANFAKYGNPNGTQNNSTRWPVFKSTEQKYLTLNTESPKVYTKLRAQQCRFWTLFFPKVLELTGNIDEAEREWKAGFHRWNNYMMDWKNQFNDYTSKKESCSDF
Sequence of Cholinesterase (Equus caballus) (P81908 whole entry): as above
Sequence of Acetylcholinesterase (O42275 whole entry): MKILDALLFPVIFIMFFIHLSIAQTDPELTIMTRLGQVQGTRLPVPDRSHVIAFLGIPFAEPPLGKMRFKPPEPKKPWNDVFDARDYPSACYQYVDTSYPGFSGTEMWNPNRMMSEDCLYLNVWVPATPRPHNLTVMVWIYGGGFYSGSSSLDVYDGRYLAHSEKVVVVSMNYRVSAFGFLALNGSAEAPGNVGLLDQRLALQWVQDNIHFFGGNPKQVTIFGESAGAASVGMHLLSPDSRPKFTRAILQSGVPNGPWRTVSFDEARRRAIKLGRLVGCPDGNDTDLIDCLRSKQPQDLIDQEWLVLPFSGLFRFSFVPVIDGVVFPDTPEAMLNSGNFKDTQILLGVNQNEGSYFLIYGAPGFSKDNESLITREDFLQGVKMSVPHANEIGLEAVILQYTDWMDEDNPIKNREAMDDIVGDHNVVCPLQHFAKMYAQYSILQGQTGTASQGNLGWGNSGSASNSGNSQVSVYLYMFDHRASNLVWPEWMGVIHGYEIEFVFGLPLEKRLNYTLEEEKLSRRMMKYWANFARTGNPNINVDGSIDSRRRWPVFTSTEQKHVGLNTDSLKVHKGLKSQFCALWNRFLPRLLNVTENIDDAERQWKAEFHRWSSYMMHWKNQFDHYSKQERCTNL

Take `O=C1C(=O)N(CCCN2C(=O)C(=O)c3ccccc32)c2ccccc21`: the IC50 in test [1] and in test [2] was more than 125 µM in each case.

Turning to `O=C1C(=O)N(CCCCN2C(=O)C(=O)c3ccccc32)c2ccccc21`, the IC50 was 34.7 µM in test [1] and more than 125 µM in test [2].

For `O=C1C(=O)N(CCCCCCCCN2C(=O)C(=O)c3ccccc32)c2ccccc21`, the IC50 in test [1] and in test [2] was more than 50 µM throughout.

As for `O=C1Nc2ccccc2C1(O)c1c[nH]c2ccccc12` (centres undefined), the results for the IC50 in test [1] and in test [2] were 357 µM and 1300 µM, respectively.

As for `O=C1N(CCN2C(=O)C(O)(c3c[nH]c4ccccc34)c3ccccc32)c2ccccc2C1(O)c1c[nH]c2ccccc12` (centres undefined), the half-maximal inhibitory concentration (IC50) in test [1] and in test [2] was more than 50 µM each time.

Regarding `O=C1N(CCCCCCCN2C(=O)C(O)(c3c[nH]c4ccccc34)c3ccccc32)c2ccccc2C1(O)c1c[nH]c2ccccc12` (centres undefined), the IC50 is 13.2 µM in test [1] and more than 50 µM in test [2].

Turning to `O=C1N(CCCCN2C(=O)C(O)(c3c[nH]c4ccccc34)c3ccccc32)c2ccccc2C1(O)c1c[nH]c2ccccc12` (centres undefined), the IC50 is 11.8 µM in test [1] and more than 50 µM in test [2].

As to `O=C1N(CCCCCN2C(=O)C(O)(c3c[nH]c4ccccc34)c3ccccc32)c2ccccc2C1(O)c1c[nH]c2ccccc12` (centres undefined), the inhibition entry in test [3] is “Active”. This compound also returned an IC50 in test [2] of more than 50 µM.

Take `O=C1Nc2ccccc2C1=O` [ISATIN]: the IC50 in test [1] and in test [2] was more than 1000 µM in each case.

As for `O=C1N(CCCCCCCCN2C(=O)C(O)(c3c[nH]c4ccccc34)c3ccccc32)c2ccccc2C1(O)c1c[nH]c2ccccc12` (centres undefined), the IC50 in test [1] is more than 25 µM; in test [2], more than 50 µM.

As for `O=C1C(=O)N(CCCCCN2C(=O)C(=O)c3ccccc32)c2ccccc21`, the values for the IC50 in test [1] and in test [2] were 7.56 µM and more than 50 µM, respectively.

With `O=C1C(=O)N(CCCCCCCN2C(=O)C(=O)c3ccccc32)c2ccccc21`, in test [4], the Ratio IC50 worked out at 300. The IC50 was 3.2 µM in test [1] and more than 50 µM in test [2]. The inhibition entry in test [5] is “Active”.

With `O=C1N(CCCN2C(=O)C(O)(c3c[nH]c4ccccc34)c3ccccc32)c2ccccc2C1(O)c1c[nH]c2ccccc12` (centres undefined), the IC50 is 6.47 µM in test [1] and more than 50 µM in test [2].

`O=C1C(=O)N(CCN2C(=O)C(=O)c3ccccc32)c2ccccc21`: the IC50 in test [1] and in test [2] was more than 125 µM throughout.

For `O=C1C(=O)N(CCCCCCN2C(=O)C(=O)c3ccccc32)c2ccccc21`, the IC50 in test [1] and in test [2] was more than 50 µM throughout.

Regarding `O=C1N(CCCCCCN2C(=O)C(O)(c3c[nH]c4ccccc34)c3ccccc32)c2ccccc2C1(O)c1c[nH]c2ccccc12` (centres undefined), the results for the IC50 in test [1] and in test [2] were 14 µM and more than 50 µM, respectively.
